From PubChem BioAssay AID179 (DTP/NCI, 2004)
Activity calls are given as the source filed them.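 The calls were made as follows: active = compounds giving half or more protection of infected cells from virus-caused growth loss, again on retest; inactive = the rest.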

System: CEM cells HIV-1 protection, formazan growth assay
Assay: NCI AIDS Antiviral Assay
Conditions: for IC50: measured here: growth of uninfected CEM cells
How it was run: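 Category rules: moderately active means at least 50% protection on retest, and confirmed active means 100% protection reproducibly. The underlying data came from a formazan growth assay in HIV-1-infected CEM cells.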

| Compound | EC50 | IC50 | outcome |
| --- | --- | --- | --- |
| CCC1(CCC#N)CCc2[nH]c3ccccc3c2C1=O (stereo not given) | > 200 µM | 174 µM | – |
| Cc1c(C(=O)C/C(=N/NC(=O)c2ccccc2)C(=O)Nc2ccc(Cl)cc2)[n+](=O)c2ccccc2n1[O-] | > 34.7 µM | 20.4 µM | – |
| CCN(CCO)c1ccc(N=O)cc1 | > 200 µM | 11.5 µM | – |
| Cc1cc(-c2ccc(C(=O)C(Cl)(Cl)Cl)[nH]2)on1 | > 200 µM | 17.8 µM | – |
| CCOC(=O)C1(NC(=O)OC(C)(C)C)CCc2[nH]oc(=O)c2C1 (stereo not given) | > 200 µM | > 200 µM | – |
| O=S1(=O)CCC(OC2CCS(=O)(=O)C2)C1 (stereo not given) | > 977 µM | > 977 µM | – |
| Nc1ncnc2c1ncn2C(Cl)=C(Cl)Cl | > 200 µM | 115 µM | – |
| O=S(=O)(CC#CCO)c1cccc2ccccc12 | – | – | inactive |
| CCOC(=O)C(NC(=O)NC(C(=O)OCC)C(=O)OCC)C(=O)OCC | > 200 µM | > 200 µM | – |
| CN(C)CN(C)c1nc(N(C)C)nc(N(C)CN(C)C)n1 | > 200 µM | 32.4 µM | – |
| OC(c1ccccc1)c1ccc(C(O)c2ccccc2)cc1 (stereo not given) | > 123 µM | > 123 µM | – |
| c1cc(-c2nc3sc(-c4ccncc4)nc3s2)ccn1 | > 24.5 µM | > 24.5 µM | – |
| O=c1[nH]c(N/N=C\C(O)C(O)C(O)C(O)CO)nc2ccccc12 (stereo not given) | > 200 µM | > 200 µM | – |
| CCN1CCN(c2nc3ccccc3c3c2CCOc2ccccc2-3)CC1 | – | – | inactive |
| Cc1ccc(Oc2ccccc2N)cc1 | – | – | inactive |
| COc1cc(CNC2=NCCC2)cc(OC)c1OC | > 200 µM | 47.9 µM | – |
| CCOC(=O)C1SC(=Nc2ccc(OC)c(OC)c2)N=C1C (stereo not given) | > 22.4 µM | > 22.4 µM | – |
| CCC1(CC)C(=O)NC(=S)N=C1N | – | – | inactive |
| CC1(C)Oc2cc3oc(C(=O)O)cc(=O)c3cc2-c2ccc(O)cc21 | > 490 µM | 347 µM | – |
| C1=CC(=P(c2ccccc2)(c2ccccc2)c2ccccc2)C=C1 | – | – | inactive |
| COC(=O)C(C(=O)C(=O)Nc1nc(=S)[nH][nH]1)c1csc(-n2nc(-c3ccccc3)cc2-c2ccccc2)n1 (stereo not given) | > 69.2 µM | > 69.2 µM | – |
| COCCN(CCOC)C1C2=C(CCCC2)OS(=O)(=O)C1c1ccccc1 (stereo not given) | > 66.1 µM | > 66.1 µM | – |
| COc1ccc(N2C(=O)CC(=O)N(C(=O)CCCCCCCCC(=O)N3C(=O)CC(=O)N(c4ccc(OC)cc4)C3=S)C2=S)cc1 | > 200 µM | 102 µM | – |

| Compound | EC50 | IC50 | outcome |
| --- | --- | --- | --- |
| Cc1ccc(NC(=O)C(=O)C2C(=O)C3=C(CC2(C)C)NC2C=CC=CC2S3)c(C)c1 (stereo not given) | > 117 µM | > 117 µM | – |
| NC12CCC(CC1=O)C2 (stereo not given) | > 200 µM | > 200 µM | – |
| COc1ccc(OC)c(/C=C/C(=O)C(C)(C)C)c1 | > 105 µM | 19.1 µM | – |
| CC1=Nc2nc(Cl)cn2C(=O)C1(Cl)Cl | > 200 µM | 33.1 µM | – |
| c1cc[c]([Sn]([O]c2cccc3cccnc23)([c]2ccccc2)[c]2ccccc2)cc1 | – | – | inactive |
| NC(=O)C(F)(Cc1ccccc1)C(=O)O (stereo not given) | > 200 µM | > 200 µM | – |
| Cn1cnc(N)c1S(N)(=O)=O | > 1410 µM | > 1410 µM | – |
| COC(=O)[C@H](C)NC(=O)[C@H](CSC)N1C(=O)N[C@@H](C(C)C)C1=O | > 200 µM | 24.5 µM | – |
| C/C=C(/C1CC(=O)N2CCc3c([nH]c4ccccc34)C2C1)[Si](C)(C)C (stereo not given) | > 10.7 µM | > 10.7 µM | – |
| O=c1[nH]c(=O)c2[nH]c(=O)[nH]c(=O)c2[nH]1 | > 200 µM | > 200 µM | – |
| Cc1[nH]c2nccn2c(=O)c1CCO | > 200 µM | > 200 µM | – |
| CC1(Br)C(=O)NC(=O)N(C2C=CC(CO)O2)C1O (stereo not given) | > 200 µM | > 200 µM | – |
| CC(C)C1CSC2N1C(=O)C2(OCc1ccccc1)C1CC1 (stereo not given) | > 200 µM | 81.3 µM | – |
| CCOC(=O)/C(C#N)=C/c1coc2cc(C)cc(C)c2c1=O | > 200 µM | 11 µM | – |
| CSCC(COC(C)=O)(CSC)c1ccncc1 | > 871 µM | 501 µM | – |
| CC1Cc2c([nH]c3ccccc3c2=O)O1 (stereo not given) | > 1230 µM | 724 µM | – |
| CC(C)CC(NC(=O)OC(C)(C)C)C(=O)Nc1ccc(Nc2nc(F)nc(-c3c4ccccc4c4n3CCS4)n2)cc1 (stereo not given) | > 6.03 µM | > 6.03 µM | – |
| CCCCCCN(CCCCCC)C1=CC(=O)C(=O)c2ccccc21 | > 95.5 µM | 16.6 µM | – |
| CN(C)/N=N/c1nc2c(c(=O)n(C)c(=O)n2C)n1C | > 151 µM | > 151 µM | – |
| COc1ccc(C(=O)N=C2N(c3ccccc3)C(=Nc3ccccc3)C(=Nc3ccccc3)N2c2ccccc2)cc1 | > 200 µM | 8.32 µM | – |
| Cc1cc2c3ccccc3n(C)c2c2c1C(=O)C=CC2=O | > 69.2 µM | 5.89 µM | – |
| Cc1[nH]c2ncn(N)c(=N)c2c1Cc1ccccc1 | > 200 µM | > 200 µM | – |
| COc1cc(O)c2c(=O)c(O)c(-c3ccc(O)c(OC)c3)oc2c1 | > 200 µM | > 200 µM | – |

| Compound | EC50 | IC50 | outcome |
| --- | --- | --- | --- |
| COc1ccc(C)cc1C1CCC(=O)O1 (stereo not given) | > 1200 µM | > 1200 µM | – |
| CN(C)Cc1cc(CN(C)C)cc(CN(C)C)c1 | > 200 µM | > 200 µM | – |
| CCCCSC1CCSc2c1ccc1ccccc21 (stereo not given) | – | – | inactive |
| Cc1ccc(S(=O)(=O)NCC2CCCCC2=O)cc1 (stereo not given) | > 129 µM | 123 µM | – |
| COc1cc2c3c(n(C)c(=O)c2cc1OC)-c1cc2c(cc1C3=O)OCO2 | > 14.5 µM | 0.891 µM | – |
| COc1ccc(-n2sc3ncc([N+](=O)[O-])cc3c2=O)cc1 | 9.33 µM | > 200 µM | – |
| N#CC(C(=O)CCC(=O)Nc1ccc(Cl)c(Cl)c1)c1ccc(Cl)cc1 (stereo not given) | > 331 µM | > 331 µM | – |
| CN1C(=O)CNS1(=O)=O | – | – | inactive |
| Cc1ccc(C(=O)c2ccccc2C(=O)O)cc1C(=O)O | > 200 µM | > 200 µM | – |
| CC(=O)O[C@H]1CC[C@@]2(C)C(=CC[C@@H]3C2CC[C@@]2(C)C3CC[C@@H]2c2nc(-c3ccccc3)cs2)C1 (stereo not given in full) | > 52.5 µM | > 52.5 µM | – |
| CC(C)/C=N\n1c(N)c(C#N)c(C#N)c1C(C)C | > 200 µM | 63.1 µM | – |
| Nc1nc(N)c(N=Nc2ccc(S(=O)(=O)NC(=O)c3ccccc3)cc2)c(=O)[nH]1 | > 200 µM | > 200 µM | – |
| COC(=O)C(C(=O)C(=O)Nc1cccc(OC)c1)c1cnc2ccccc2n1 (stereo not given) | > 69.2 µM | > 69.2 µM | – |
| c1ccc(N2N=NC3C4CC(C5CCCC54)C32)cc1 (stereo not given) | > 200 µM | > 100 µM | – |
| O=C1/C(=C/c2ccc(O)c(CN3CCCCC3)c2)CCC/C1=C\c1ccc(O)c(CN2CCCCC2)c1 | – | – | inactive |
| C[C@@H]1CC(O)C2(O)C13CC(OC(=O)[C@@H]3O)C1(O)C(=O)OCC12C (stereo not given in full) | > 759 µM | > 759 µM | – |
| CCOC(=N)n1c(=O)n(C2=NCCN2)c2ccccc21 | > 200 µM | 123 µM | – |
| O=NNc1ccc(S(=O)(=O)c2ccccc2)cn1 | > 200 µM | > 200 µM | – |
| COc1ccc2[nH]c3c(c2c1)COc1ccccc1C3=O | > 200 µM | > 200 µM | – |
| CCOc1ccc(N=Cc2ccnc3ccccc23)cc1 | – | – | inactive |
| N#CC12CC(C=O)=C(N)C1(C#N)CC(C=O)=C2N (stereo not given) | > 200 µM | 14.8 µM | – |
| COC(=O)C(C)(Cc1ccc2c(c1)nnn2C(C)=O)NC(C)=O (stereo not given) | > 200 µM | > 200 µM | – |
| O=[N+]([O-])c1nccn1CC1OC(n2ccnc2[N+](=O)[O-])C(O)C(O)C1O (stereo not given) | > 200 µM | > 200 µM | – |

| Compound | EC50 | IC50 | outcome |
| --- | --- | --- | --- |
| COc1cc(CC(C)=O)cc(OC)c1 | > 200 µM | 95.5 µM | – |
| C=CCOc1ccc(C2(c3ccc(OCC=C)cc3)C(=O)Nc3ccccc32)cc1 | > 200 µM | 44.7 µM | – |
| CCOC1=C2C(C)(CCC3[C@@]4(C)C=CC(=O)C(C)(C)C4CC(O)[C@@]23C)C(c2ccoc2)C1=O (stereo not given in full) | > 79.4 µM | 17.8 µM | – |
| CN1C(=O)C(O)CC1c1ccc(C(F)(F)F)cc1 (stereo not given) | – | – | inactive |
| O=C(N/N=C/c1cccc([N+](=O)[O-])c1)C(=O)N/N=C/c1cccc([N+](=O)[O-])c1 | > 100 µM | > 100 µM | – |
| CC(=O)C(=Cc1ccc(Br)cc1)C(C)=O | > 51.3 µM | 27.5 µM | – |
| CO/N=C(\C(=O)Nc1cncs1)c1csc(NC(c2ccccc2)(c2ccccc2)c2ccccc2)n1 | > 200 µM | > 200 µM | – |
| NNS(=O)(=O)c1ccc(OCC(=O)O)cc1 | > 200 µM | 182 µM | – |
| CSCCOC(=O)c1cc(NC(=S)c2ccoc2C)ccc1Cl | 0.0182 µM | 19.5 µM | – |
| [C-]#[O+].[C-]#[O+].[C-]#[O+].[C-]#[O+].[C-]#[O+].[Mo+2].[Mo+4].[c-]1[c-][c-][cH-][c-]1.[c-]1[c-][c-][cH-][c-]1.c1ccc([PH+](CC[PH+](c2ccccc2)c2ccccc2)c2ccccc2)cc1 | > 4.37 µM | 2.69 µM | – |
| Cn1c(N)c(C(N)=O)[nH]c1=S | > 200 µM | > 200 µM | – |
| Cc1cc(=O)[nH]c(Sc2ccc([N+](=O)[O-])cc2[N+](=O)[O-])n1 | > 200 µM | 6.31 µM | – |
| CCC(C#N)NCc1cccc(CNC(C#N)CC)c1 (stereo not given) | > 200 µM | > 200 µM | – |
| OC(c1ccccc1)C(F)(F)c1nc2ccccc2o1 (stereo not given) | > 200 µM | > 200 µM | – |
| COc1cc(-c2cc(=O)c3ccc(O)cc3o2)cc(OC)c1OC | > 200 µM | > 200 µM | – |
| COc1ccc(C2S/C(=C\c3cccc(O)c3)C(=O)N2NC(=O)Cc2ccccc2)cc1 (stereo not given) | > 112 µM | > 112 µM | – |
| Cc1cccc2c(N)c3cccc(C(=O)NCC[N+](C)(C)Cc4ccccc4[N+](=O)[O-])c3nc12 | > 100 µM | 3.55 µM | – |
| Cn1c(N)c(/C=N/NC(=O)CC#N)c(=O)n(C)c1=O | > 200 µM | > 200 µM | – |
| CSc1nc(-c2ccc(C)cc2)c(C#N)c(=O)[nH]1 | – | – | inactive |
| CCn1c(=O)c2c3ccc(OC(C)=O)cc3[nH]c2c2ccc(OC(C)=O)cc21 | > 200 µM | 26.9 µM | – |
| Nc1ncc(N)c(NCC2(CO)CC(CCc3ccccc3)C2)n1 (stereo not given) | > 200 µM | 4.9 µM | – |
| O=C1OC2(CC1C1(O)C3CC4CC(C3)CC1C4)C1CC3CC(C1)CC2C3 (stereo not given) | > 100 µM | 38.9 µM | – |
